# Legend:
# [1] = target: T1, Alpha-1D adrenergic receptor (Homo sapiens) (UniProt P25100); assay: Inhibition of alpha1D adrenergic receptor at 10 uM
# T1 sequence (whole entry): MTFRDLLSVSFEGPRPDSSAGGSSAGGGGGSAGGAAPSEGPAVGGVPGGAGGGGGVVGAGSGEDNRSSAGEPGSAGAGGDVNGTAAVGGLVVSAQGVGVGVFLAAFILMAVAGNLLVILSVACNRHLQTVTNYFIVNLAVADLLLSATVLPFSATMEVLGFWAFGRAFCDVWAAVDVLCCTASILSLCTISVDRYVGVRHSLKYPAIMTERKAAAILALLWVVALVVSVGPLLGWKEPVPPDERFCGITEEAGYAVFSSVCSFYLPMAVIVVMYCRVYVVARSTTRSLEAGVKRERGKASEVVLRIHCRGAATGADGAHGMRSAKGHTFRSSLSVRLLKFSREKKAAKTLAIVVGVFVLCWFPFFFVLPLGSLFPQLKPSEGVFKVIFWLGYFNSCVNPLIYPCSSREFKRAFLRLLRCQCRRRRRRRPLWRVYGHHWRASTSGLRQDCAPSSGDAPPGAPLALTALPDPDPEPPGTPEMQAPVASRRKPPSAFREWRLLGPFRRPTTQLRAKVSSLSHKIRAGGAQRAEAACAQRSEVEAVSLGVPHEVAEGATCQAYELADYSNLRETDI
# [2] = target: T2, Alpha-2A adrenergic receptor (Homo sapiens) (UniProt P08913); assay: Inhibition of alpha2A adrenergic receptor at 10 uM
# T2 sequence (whole entry): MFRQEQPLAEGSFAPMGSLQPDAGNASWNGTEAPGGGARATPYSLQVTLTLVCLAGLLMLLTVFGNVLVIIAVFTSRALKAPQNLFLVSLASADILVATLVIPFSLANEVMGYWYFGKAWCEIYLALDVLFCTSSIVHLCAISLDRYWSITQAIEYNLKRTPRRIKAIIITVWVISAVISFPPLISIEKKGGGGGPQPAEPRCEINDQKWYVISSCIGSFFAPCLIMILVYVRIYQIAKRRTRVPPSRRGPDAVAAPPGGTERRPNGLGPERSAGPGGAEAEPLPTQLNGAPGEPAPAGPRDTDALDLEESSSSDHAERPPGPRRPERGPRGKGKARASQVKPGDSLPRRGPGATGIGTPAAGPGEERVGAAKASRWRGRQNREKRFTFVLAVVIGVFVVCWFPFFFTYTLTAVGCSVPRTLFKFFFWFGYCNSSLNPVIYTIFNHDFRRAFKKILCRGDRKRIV
# [3] = target: Beta-3 adrenergic receptor (Homo sapiens) (UniProt P13945); assay: Inhibition of beta3 adrenergic receptor at 10 uM
# [4] = species: Rattus norvegicus; assay: Inhibition of BZP receptor in rat brain at 10 uM; format: tissue-based
# [5] = target: D(1A) dopamine receptor (Homo sapiens) (UniProt P21728); assay: Inhibition of D1 dopamine receptor at 10 uM
# [6] = target: T3, D(4) dopamine receptor (Homo sapiens) (UniProt P21917); assay: Inhibition of D4 dopamine receptor at 10 uM
# T3 sequence (whole entry): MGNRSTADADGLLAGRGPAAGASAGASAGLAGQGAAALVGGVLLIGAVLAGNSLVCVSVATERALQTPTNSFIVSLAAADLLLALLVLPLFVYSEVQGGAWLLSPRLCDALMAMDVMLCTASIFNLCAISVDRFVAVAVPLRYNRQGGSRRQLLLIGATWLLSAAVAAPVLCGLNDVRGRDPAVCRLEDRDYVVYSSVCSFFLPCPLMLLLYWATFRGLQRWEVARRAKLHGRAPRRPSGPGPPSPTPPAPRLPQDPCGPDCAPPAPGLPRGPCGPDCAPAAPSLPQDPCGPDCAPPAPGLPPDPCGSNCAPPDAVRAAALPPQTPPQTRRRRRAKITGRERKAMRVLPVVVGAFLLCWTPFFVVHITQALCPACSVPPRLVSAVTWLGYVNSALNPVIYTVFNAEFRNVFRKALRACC
# [7] = target: Histamine H1 receptor (Homo sapiens) (UniProt P35367); assay: Inhibition of H1 receptor at 10 uM
# [8] = target: Histamine H2 receptor (Homo sapiens) (UniProt P25021); assay: Inhibition of H2 receptor at 10 uM
# [9] = target: Histamine H3 receptor (Homo sapiens, UniProt Q9Y5N1); assay: Inhibition of H3 receptor at 10 uM
# [10] = target: 5-hydroxytryptamine receptor 1D (Homo sapiens) (UniProt P28221); assay: Inhibition of 5-HT1D receptor at 10 uM
# [11] = target: 5-hydroxytryptamine receptor 2A (Homo sapiens) (UniProt P28223); assay: Inhibition of 5-HT2A receptor at 10 uM
# [12] = target: 5-hydroxytryptamine receptor 2B (Homo sapiens) (UniProt P41595); assay: Inhibition of 5-HT2B receptor at 10 uM
# [13] = target: T4, 5-hydroxytryptamine receptor 3A (Homo sapiens) (UniProt P46098); assay: Inhibition of 5-HT3 receptor at 10 uM
# T4 sequence (whole entry): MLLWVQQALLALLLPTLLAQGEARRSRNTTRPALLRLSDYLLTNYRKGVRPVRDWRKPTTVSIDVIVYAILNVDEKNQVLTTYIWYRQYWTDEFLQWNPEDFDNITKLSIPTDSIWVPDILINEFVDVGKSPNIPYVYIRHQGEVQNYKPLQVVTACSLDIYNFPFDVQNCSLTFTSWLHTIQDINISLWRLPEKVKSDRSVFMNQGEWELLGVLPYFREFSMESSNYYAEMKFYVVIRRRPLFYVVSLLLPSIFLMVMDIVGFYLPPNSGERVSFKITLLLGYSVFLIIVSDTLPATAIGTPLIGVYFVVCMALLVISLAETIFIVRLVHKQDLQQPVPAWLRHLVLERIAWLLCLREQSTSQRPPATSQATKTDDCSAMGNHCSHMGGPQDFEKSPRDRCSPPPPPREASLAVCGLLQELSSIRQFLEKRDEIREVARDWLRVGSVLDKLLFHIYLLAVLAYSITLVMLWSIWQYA
# [14] = target: Sodium-dependent noradrenaline transporter (Homo sapiens) (UniProt P23975); assay: Inhibition of NET at 10 uM
# Sodium-dependent noradrenaline transporter (Homo sapiens), sequence (P23975 whole entry): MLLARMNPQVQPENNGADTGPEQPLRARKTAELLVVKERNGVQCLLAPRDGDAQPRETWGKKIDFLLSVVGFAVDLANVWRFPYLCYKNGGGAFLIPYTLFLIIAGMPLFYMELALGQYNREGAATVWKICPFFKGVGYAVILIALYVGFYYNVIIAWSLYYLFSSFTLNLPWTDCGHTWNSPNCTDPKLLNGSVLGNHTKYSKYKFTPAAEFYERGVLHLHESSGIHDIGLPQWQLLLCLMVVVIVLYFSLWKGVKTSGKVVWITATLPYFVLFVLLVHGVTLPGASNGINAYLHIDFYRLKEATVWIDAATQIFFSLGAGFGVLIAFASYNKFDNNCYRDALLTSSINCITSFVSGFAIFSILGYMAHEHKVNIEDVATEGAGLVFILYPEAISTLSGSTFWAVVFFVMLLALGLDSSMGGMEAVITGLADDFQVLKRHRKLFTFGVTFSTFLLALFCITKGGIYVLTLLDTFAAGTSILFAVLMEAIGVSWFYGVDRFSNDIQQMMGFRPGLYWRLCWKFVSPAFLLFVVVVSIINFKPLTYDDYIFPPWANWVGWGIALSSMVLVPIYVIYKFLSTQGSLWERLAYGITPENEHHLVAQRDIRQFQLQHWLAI
# 5-hydroxytryptamine receptor 2A (Homo sapiens), sequence (P28223 whole entry): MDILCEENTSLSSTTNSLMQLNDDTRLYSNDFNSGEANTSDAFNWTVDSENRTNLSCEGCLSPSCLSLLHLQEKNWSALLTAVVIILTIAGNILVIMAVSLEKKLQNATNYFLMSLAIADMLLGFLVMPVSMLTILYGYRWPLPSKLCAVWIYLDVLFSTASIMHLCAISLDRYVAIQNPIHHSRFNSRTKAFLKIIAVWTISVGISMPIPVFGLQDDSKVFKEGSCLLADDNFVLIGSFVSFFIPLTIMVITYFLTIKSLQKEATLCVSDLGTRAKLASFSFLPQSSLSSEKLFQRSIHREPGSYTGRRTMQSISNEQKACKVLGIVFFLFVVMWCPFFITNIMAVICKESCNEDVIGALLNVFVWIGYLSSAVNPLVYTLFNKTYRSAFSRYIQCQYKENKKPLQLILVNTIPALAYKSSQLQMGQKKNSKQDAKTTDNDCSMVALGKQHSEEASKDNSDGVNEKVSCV
# D(1A) dopamine receptor (Homo sapiens), sequence (P21728 whole entry): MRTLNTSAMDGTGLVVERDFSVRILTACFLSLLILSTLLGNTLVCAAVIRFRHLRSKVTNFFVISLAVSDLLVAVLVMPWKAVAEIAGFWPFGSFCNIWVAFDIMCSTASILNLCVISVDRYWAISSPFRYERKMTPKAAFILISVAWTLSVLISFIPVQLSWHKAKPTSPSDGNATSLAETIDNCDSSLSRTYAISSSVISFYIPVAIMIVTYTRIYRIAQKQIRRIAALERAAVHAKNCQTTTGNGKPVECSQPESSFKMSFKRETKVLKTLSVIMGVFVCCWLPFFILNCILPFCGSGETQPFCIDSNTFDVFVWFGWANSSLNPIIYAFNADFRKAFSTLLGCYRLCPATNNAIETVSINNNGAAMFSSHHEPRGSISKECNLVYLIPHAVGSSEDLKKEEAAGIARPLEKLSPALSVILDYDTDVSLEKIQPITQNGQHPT
# Histamine H2 receptor (Homo sapiens), sequence (P25021 whole entry): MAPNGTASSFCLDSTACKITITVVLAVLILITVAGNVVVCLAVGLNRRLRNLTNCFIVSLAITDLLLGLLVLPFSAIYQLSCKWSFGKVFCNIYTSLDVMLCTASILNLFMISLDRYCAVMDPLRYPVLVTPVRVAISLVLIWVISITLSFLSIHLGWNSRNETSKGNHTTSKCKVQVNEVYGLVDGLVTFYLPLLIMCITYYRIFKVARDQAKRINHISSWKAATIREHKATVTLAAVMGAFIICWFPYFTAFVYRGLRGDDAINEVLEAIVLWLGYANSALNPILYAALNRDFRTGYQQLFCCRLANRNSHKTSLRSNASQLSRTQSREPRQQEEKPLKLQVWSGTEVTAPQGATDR
# Histamine H1 receptor (Homo sapiens), sequence (P35367 whole entry): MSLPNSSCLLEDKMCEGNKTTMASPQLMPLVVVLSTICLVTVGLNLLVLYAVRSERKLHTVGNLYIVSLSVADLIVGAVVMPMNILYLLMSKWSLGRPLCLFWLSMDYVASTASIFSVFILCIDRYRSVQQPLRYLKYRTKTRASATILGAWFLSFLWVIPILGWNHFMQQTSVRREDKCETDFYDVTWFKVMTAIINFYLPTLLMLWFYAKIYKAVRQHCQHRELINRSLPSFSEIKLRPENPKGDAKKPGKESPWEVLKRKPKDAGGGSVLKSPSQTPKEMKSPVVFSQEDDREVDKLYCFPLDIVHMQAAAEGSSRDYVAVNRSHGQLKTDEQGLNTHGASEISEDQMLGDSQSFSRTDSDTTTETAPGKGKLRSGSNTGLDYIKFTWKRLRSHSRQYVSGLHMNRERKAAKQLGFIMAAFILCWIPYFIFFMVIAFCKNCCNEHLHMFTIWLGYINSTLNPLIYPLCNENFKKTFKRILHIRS
# 5-hydroxytryptamine receptor 2B (Homo sapiens), sequence (P41595 whole entry): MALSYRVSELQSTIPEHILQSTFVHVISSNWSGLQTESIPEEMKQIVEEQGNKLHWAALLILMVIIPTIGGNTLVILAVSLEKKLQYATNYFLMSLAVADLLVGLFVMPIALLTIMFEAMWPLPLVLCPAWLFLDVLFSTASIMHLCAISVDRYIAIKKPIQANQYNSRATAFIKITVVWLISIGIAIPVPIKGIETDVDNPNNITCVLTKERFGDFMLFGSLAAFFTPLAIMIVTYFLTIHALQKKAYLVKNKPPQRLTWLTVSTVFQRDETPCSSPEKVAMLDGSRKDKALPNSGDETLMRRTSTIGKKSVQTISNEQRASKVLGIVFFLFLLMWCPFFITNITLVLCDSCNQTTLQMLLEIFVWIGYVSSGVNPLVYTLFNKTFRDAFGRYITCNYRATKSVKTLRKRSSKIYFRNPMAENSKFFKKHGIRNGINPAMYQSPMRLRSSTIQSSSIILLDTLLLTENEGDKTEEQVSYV
# Beta-3 adrenergic receptor (Homo sapiens), sequence (P13945 whole entry, looked up): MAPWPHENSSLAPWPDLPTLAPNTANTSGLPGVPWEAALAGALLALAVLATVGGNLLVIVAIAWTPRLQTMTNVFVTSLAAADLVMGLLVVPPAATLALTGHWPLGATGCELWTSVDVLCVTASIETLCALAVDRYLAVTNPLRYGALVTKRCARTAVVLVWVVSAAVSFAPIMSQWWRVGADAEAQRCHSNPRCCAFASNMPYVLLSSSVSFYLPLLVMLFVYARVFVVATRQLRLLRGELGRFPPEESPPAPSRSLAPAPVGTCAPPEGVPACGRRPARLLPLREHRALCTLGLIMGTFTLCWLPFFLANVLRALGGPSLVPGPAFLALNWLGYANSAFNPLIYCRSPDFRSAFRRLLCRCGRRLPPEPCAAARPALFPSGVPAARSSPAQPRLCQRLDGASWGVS
# Histamine H3 receptor, sequence (Q9Y5N1 whole entry): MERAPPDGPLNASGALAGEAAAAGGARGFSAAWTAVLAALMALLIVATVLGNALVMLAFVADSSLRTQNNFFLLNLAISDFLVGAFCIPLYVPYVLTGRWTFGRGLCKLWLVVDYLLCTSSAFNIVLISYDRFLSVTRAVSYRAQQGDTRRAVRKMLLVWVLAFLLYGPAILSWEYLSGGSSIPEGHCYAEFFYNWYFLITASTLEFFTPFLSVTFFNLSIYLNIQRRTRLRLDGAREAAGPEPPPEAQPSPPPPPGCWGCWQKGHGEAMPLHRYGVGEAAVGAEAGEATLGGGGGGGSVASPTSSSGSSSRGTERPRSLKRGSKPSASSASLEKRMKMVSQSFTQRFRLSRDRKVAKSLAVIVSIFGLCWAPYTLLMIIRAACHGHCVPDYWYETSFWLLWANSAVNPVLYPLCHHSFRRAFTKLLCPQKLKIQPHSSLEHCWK
# 5-hydroxytryptamine receptor 1D (Homo sapiens), sequence (P28221 whole entry): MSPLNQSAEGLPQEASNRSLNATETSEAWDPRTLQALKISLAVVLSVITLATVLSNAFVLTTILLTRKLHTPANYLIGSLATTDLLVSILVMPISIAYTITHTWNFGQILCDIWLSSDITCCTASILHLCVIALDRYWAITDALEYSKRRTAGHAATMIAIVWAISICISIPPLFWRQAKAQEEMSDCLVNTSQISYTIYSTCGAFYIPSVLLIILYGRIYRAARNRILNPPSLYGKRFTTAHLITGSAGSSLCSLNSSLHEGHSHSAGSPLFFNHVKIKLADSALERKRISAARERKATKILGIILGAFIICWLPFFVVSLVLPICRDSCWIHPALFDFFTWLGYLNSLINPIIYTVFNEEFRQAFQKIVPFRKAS
SMILES,inhibition [1] [%],inhibition [2] [%],inhibition [3] [%],inhibition [4] [%],inhibition [5] [%],inhibition [6] [%],inhibition [7] [%],inhibition [8] [%],inhibition [9] [%],inhibition [10] [%],inhibition [11] [%],inhibition [12] [%],inhibition [13] [%],inhibition [14] [%]
C1CC2CCC1N2CC12C3C4C5C3C1C5C42 (configuration not stated),< 50,< 50,< 50,< 50,< 50,< 50,< 50,< 50,< 50,< 50,< 50,< 50,< 50,< 50
C1CCC(CN2C3CCC2CC3)CC1,< 50,< 50,< 50,< 50,< 50,< 50,< 50,< 50,< 50,< 50,< 50,< 50,< 50,< 50
C1CCC(CN2CCCC2)CC1,< 50,< 50,< 50,< 50,< 50,< 50,< 50,< 50,< 50,< 50,< 50,< 50,< 50,< 50
